Laboratory results taken from the supplement of paper PMC11061612.

Assays:
EW-3 (Ewing's Sarcoma) [1] = assay: Bliss excess, mean over the matrix (fraction); higher = more synergy
Method in brief: (§1)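 After 24 hours at 37°C and 5% CO2 in 1536-well plates, cells in DMEM/F12 or RPMI plus 10% FBS received two-drug dose matrices for 72 hours. Viability came from CellTiter-Glo 2.0 luminescence and was scaled as inhibition, anchored at 0 by vehicle wells and at 1 by blank wells. Combination Emax is taken as the second-highest inhibition in the matrix, and Bliss excess as the observed combination effect less EA + EB − EA·EB, with EA and EB the single-agent effects.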

GI-1 (Glioblastoma) [2] = assay: as above
Method in brief: as §1

[3] = tested on: H-EMC-SS (Chondrosarcoma); assay: as above
Method in brief: as §1

[4] = tested on: HSC-2 (Oral Cavity Carcinoma); assay: as above
Method in brief: as §1

[5] = tested on: JHH-7 (Hepatocellular Carcinoma); assay: as above
Method in brief: as §1

[6] = tested on: KINGS-1 (Low Grade Glioma); assay: as above
Method in brief: as §1

[7] = tested on: LC4-1 (B-Lymphoblastic Leukemia); assay: as above
Method in brief: as §1

NB7 (Neuroblastoma) [8] = assay: as above
Method in brief: as §1

[9] = tested on: NCI-N87 (Gastric Carcinoma); assay: as above
Method in brief: as §1

[10] = tested on: OCUB-M (Breast Carcinoma); assay: as above
Method in brief: as §1

[11] = tested on: OCUM-1 (Gastric Carcinoma); assay: as above
Method in brief: as §1

[12] = tested on: SCC-9 (Oral Cavity Carcinoma); assay: as above
Method in brief: as §1

[13] = tested on: SNU-C1 (Colorectal Carcinoma); assay: as above
Method in brief: as §1

[14] = tested on: TGBC11TKB (Gastric Carcinoma); assay: as above
Method in brief: as §1

[15] = tested on: VMRC-LCD (Lung Adenocarcinoma); assay: as above
Method in brief: as §1

EW-3 (Ewing's Sarcoma) [16] = assay: combination Emax (second highest fraction inhibited in the dose matrix, 72 h); higher = more inhibition; extreme values may be limits of the assay
Method in brief: as §1

GI-1 (Glioblastoma) [17] = assay: as above
Method in brief: as §1

[18] = tested on: H-EMC-SS (Chondrosarcoma); assay: as above
Method in brief: as §1

[19] = tested on: HSC-2 (Oral Cavity Carcinoma); assay: as above
Method in brief: as §1

[20] = tested on: JHH-7 (Hepatocellular Carcinoma); assay: as above
Method in brief: as §1

[21] = tested on: KINGS-1 (Low Grade Glioma); assay: as above
Method in brief: as §1

[22] = tested on: LC4-1 (B-Lymphoblastic Leukemia); assay: as above
Method in brief: as §1

NB7 (Neuroblastoma) [23] = assay: as above
Method in brief: as §1

[24] = tested on: NCI-N87 (Gastric Carcinoma); assay: as above
Method in brief: as §1

[25] = tested on: OCUB-M (Breast Carcinoma); assay: as above
Method in brief: as §1

[26] = tested on: OCUM-1 (Gastric Carcinoma); assay: as above
Method in brief: as §1

[27] = tested on: SCC-9 (Oral Cavity Carcinoma); assay: as above
Method in brief: as §1

[28] = tested on: SNU-C1 (Colorectal Carcinoma); assay: as above
Method in brief: as §1

[29] = tested on: TGBC11TKB (Gastric Carcinoma); assay: as above
Method in brief: as §1

[30] = tested on: VMRC-LCD (Lung Adenocarcinoma); assay: as above
Method in brief: as §1
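Wherever Bliss excess, mean over the matrix is given: after 72 h of two-drug dosing.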

Compound | Bliss excess (EW-3 (Ewing's Sarcoma) [1]) | Bliss excess (GI-1 (Glioblastoma) [2]) | Bliss excess [3] | Bliss excess [4] | Bliss excess [5] | Bliss excess [6] | Bliss excess [7] | Bliss excess (NB7 (Neuroblastoma) [8]) | Bliss excess [9] | Bliss excess [10] | Bliss excess [11] | Bliss excess [12] | Bliss excess [13] | Bliss excess [14] | Bliss excess [15] | combination Emax (EW-3 (Ewing's Sarcoma) [16]) | combination Emax (GI-1 (Glioblastoma) [17]) | combination Emax [18] | combination Emax [19] | combination Emax [20] | combination Emax [21] | combination Emax [22] | combination Emax (NB7 (Neuroblastoma) [23]) | combination Emax [24] | combination Emax [25] | combination Emax [26] | combination Emax [27] | combination Emax [28] | combination Emax [29] | combination Emax [30]
O=C(c1cc(Cc2n[nH]c(=O)c3ccccc23)ccc1F)N1CCN(C(=O)C2CC2)CC1 [Olaparib] + CC1(C)CCC(CN2CCN(c3ccc(C(=O)NS(=O)(=O)c4ccc(NCC5CCOCC5)c([N+](=O)[O-])c4)c(Oc4cnc5[nH]ccc5c4)c3)CC2)=C(c2ccc(Cl)cc2)C1 [Venetoclax] (first compound max 10 µM, 7x7, partner max 1 µM) | 0.0351 | 0.0518 | -0.0572 | -0.0219 | -0.032 | -0.0359 | 0.0096 | -0.0285 | -0.0552 | -0.0483 | -0.0472 | -0.047 | -0.0425 | -0.0224 | -0.0266 | 0.887 | 0.265 | 0.119 | 0.115 | 0.173 | 0.131 | 1 | 0.301 | 0.121 | 0.17 | 0.172 | 0.0718 | 0.0848 | 0.183 | 0.151
N#Cc1cnc(Nc2cc(NC[C@H]3CNCCO3)c(C(F)(F)F)cn2)cn1 [SRA737] + C=CCn1c(=O)c2cnc(Nc3ccc(N4CCN(C)CC4)cc3)nc2n1-c1cccc(C(C)(C)O)n1 [AZD1775] (first compound max 10 µM, partner max 1 µM) | 0.0086 | 0.0907 | 0.0311 | 0.0573 | -0.0263 | 0.0035 | 0.0618 | 0.0949 | 0.0275 | 0.102 | 0.0537 | 0.0078 | 0.12 | 0.0401 | -0.0067 | 0.501 | 0.91 | 0.354 | 0.584 | 0.543 | 0.412 | 0.891 | 0.849 | 0.828 | 0.637 | 0.53 | 0.326 | 0.789 | 0.919 | 0.778
C=CCn1c(=O)c2cnc(Nc3ccc(N4CCN(C)CC4)cc3)nc2n1-c1cccc(C(C)(C)O)n1 [AZD1775] + Nc1ccn([C@@H]2O[C@H](CO)[C@@H](O)C2(F)F)c(=O)n1 [Gemcitabine] (first compound max 1 µM, partner max 0.3 µM) | 0.0204 | 0.0649 | 0.014 | 0.0227 | -0.0298 | -0.0065 | 0.0478 | 0.0441 | -0.0481 | 0.0679 | 0.0616 | 0.0215 | -0.0308 | 0.0011 | -0.0497 | 0.904 | 0.916 | 0.649 | 0.947 | 0.399 | 0.341 | 0.945 | 0.721 | 0.735 | 0.955 | 0.656 | 0.375 | 0.485 | 0.918 | 0.6
C[C@@H]1COCCN1c1cc(C2([S@](C)(=N)=O)CC2)nc(-c2ccnc3[nH]ccc23)n1 [AZD6738] + C1CC(C1)(C(=O)[O-])C(=O)[O-].N.N.[Pt+2] [Carboplatin] (first compound max 10 µM, 7x7, partner max 10 µM) | 0.0061 | 0.0044 | -0.0251 | 0.0029 | -0.0368 | -0.0713 | -0.0504 | -0.0115 | -0.0332 | -0.0165 | -0.0496 | -0.0334 | -0.0744 | -0.0618 | -0.0159 | 0.77 | 0.843 | 0.344 | 0.598 | 0.292 | 0.187 | 0.896 | 0.508 | 0.71 | 0.417 | 0.647 | 0.293 | 0.408 | 0.653 | 0.697
CN(CCO)CC[C@H](CSc1ccccc1)Nc1ccc(S(=O)(=O)NC(=O)c2ccc(N3CCC([C@@H](O)c4ccccc4-c4ccc(Cl)cc4)CC3)cc2)cc1S(=O)(=O)C(F)(F)F [AZD4320] + CS(=O)(=O)CCNCc1ccc(-c2ccc3ncnc(Nc4ccc(OCc5cccc(F)c5)c(Cl)c4)c3c2)o1 [Lapatinib] (first compound max 1 µM, 7x7, partner max 10 µM) | 0.0104 | 0.0992 | 0.0321 | 0.114 | -0.0153 | 0.0401 | 0.0427 | 0.0034 | 0.0453 | – | 0.0032 | 0.0105 | 0.0215 | 0.0791 | 0.0981 | 0.984 | 0.962 | 0.439 | 1 | 0.971 | 0.962 | 1 | 0.189 | 0.982 | 0.887 | 1 | 0.99 | 0.666 | 0.674 | 0.923
N#Cc1cnc(Nc2cc(NC[C@H]3CNCCO3)c(C(F)(F)F)cn2)cn1 [SRA737] + Nc1ccn([C@@H]2O[C@H](CO)[C@@H](O)C2(F)F)c(=O)n1 [Gemcitabine] (first compound max 10 µM, 7x7, partner max 0.3 µM) | -0.0521 | 0.0455 | -0.0056 | 0.059 | 0.0691 | -0.0208 | 0.113 | 0.0519 | -0.0415 | 0.0085 | -0.022 | 0.0211 | -0.0175 | 0.0075 | 0.0934 | 0.902 | 0.916 | 0.542 | 0.959 | 0.569 | 0.29 | 0.976 | 0.765 | 0.702 | 0.951 | 0.709 | 0.401 | 0.712 | 0.942 | 0.773
O=C(c1cc(Cc2n[nH]c(=O)c3ccccc23)ccc1F)N1CCN(C(=O)C2CC2)CC1 [Olaparib] + COc1nnc2ccc(N3CCC(c4ccc(OCCN5CCN(C)C(=O)[C@H]5C)cc4)CC3)nn12 [AZD5153] (first compound max 10 µM, 7x7, partner max 1 µM) | -0.0528 | 0.0092 | -0.0456 | -0.0679 | -0.0336 | -0.0773 | -0.115 | -0.0339 | -0.019 | -0.0609 | -0.0755 | -0.0418 | -0.0531 | -0.0543 | -0.0707 | 0.842 | 0.738 | 0.218 | 0.563 | 0.237 | 0.0844 | 0.899 | 0.359 | 0.528 | 0.384 | 0.488 | 0.288 | 0.524 | 0.284 | 0.35
N#Cc1cnc(Nc2cc(NC[C@H]3CNCCO3)c(C(F)(F)F)cn2)cn1 [SRA737] + O=c1[nH]cc(F)c(=O)[nH]1 [5-Fluorouracil] (first compound max 10 µM, 7x7, partner max 20 µM) | -0.0165 | -0.0397 | -0.0371 | -0.0197 | – | -0.029 | -0.0214 | -0.0058 | 0.0586 | 0.0349 | -0.0345 | 0.053 | 0.0964 | 0.0518 | -0.0371 | 0.663 | 0.683 | 0.198 | 0.382 | 0.392 | 0.122 | 0.847 | 0.431 | 0.628 | 0.302 | 0.416 | 0.319 | 0.803 | 0.869 | 0.668
Cc1c2c(nn1C)CSCc1cc(n(C)n1)CSc1cc(c3ccccc3c1)OCCCc1c(C(=O)O)n(C)c3c-2c(Cl)ccc13 [AZD5991] + CC(=O)O[C@H]1C(=O)[C@@]2(C)[C@H]([C@H](OC(=O)c3ccccc3)[C@]3(O)C[C@H](OC(=O)[C@H](O)[C@@H](NC(=O)c4ccccc4)c4ccccc4)C(C)=C1C3(C)C)[C@]1(OC(C)=O)CO[C@@H]1C[C@@H]2O [Paclitaxel] (first compound max 1 µM, 7x7, partner max 3 µM) | -0.0365 | -0.0373 | 0.0049 | -0.0534 | -0.0494 | 0.0134 | -0.0585 | 0.0901 | -0.0041 | 0.0387 | 0.027 | – | -0.024 | -0.0368 | – | 0.917 | 0.989 | 0.285 | 1 | 0.603 | 0.407 | 0.988 | 0.979 | 0.555 | 1 | 0.321 | 0.614 | 0.545 | 0.957 | 0.864
N#Cc1cnc(Nc2cc(NC[C@H]3CNCCO3)c(C(F)(F)F)cn2)cn1 [SRA737] + CCc1c2c(nc3ccc(O)cc13)-c1cc3c(c(=O)n1C2)COC(=O)[C@]3(O)CC [SN-38] (first compound max 10 µM, 7x7, partner max 0.3 µM) | -0.0562 | 0.0169 | -0.0264 | -0.0648 | 0.0753 | -0.0051 | -0.129 | 0.0757 | -0.0812 | 0.231 | -0.11 | 0.0297 | 0.0746 | 0.0031 | 0.102 | 0.865 | 0.973 | 0.544 | 0.96 | 0.616 | 0.362 | 0.941 | 0.952 | 0.732 | 0.935 | 0.695 | 0.518 | 0.748 | – | 0.812
